Where a name gives a salt, the structure may show the parent alone.
SMILES | melting point
CCCCc1oc2ccc(C(=O)OC(C)C)cc2c1C(=O)c1ccc(/C=C/CN(CCCC)CCCC)cc1 (as salt: oxalate) [Example 39] | 112 °C
CCCCN(C/C=C/c1ccc(C(=O)c2c(CC(C)C)oc3ccc(C(=O)OC(C)C)cc23)cc1)CCCC (as salt: hydrochloride) [Example 40] | 147 to 150 °C
CCCCc1oc2cc(C(=O)OC(C)C)ccc2c1C(=O)c1ccc(/C=C/CN(CCCC)CCCC)cc1 (as salt: hydrochloride) [Example 38] | 110 to 114 °C
CCCCNCC#Cc1ccc(C(=O)c2c(CCCC)oc3ccc(C(=O)OC(C)C)cc23)cc1 (as salt: hydrochloride) [Example 36] | 166 to 167 °C
CCCCc1oc2cc(C)c(C(=O)OC(C)C)cc2c1C(=O)c1ccc(/C=C\CN(CCCC)CCCC)cc1.Cl | 129 °C
CCCCc1oc2ccc(C(=O)OC)cc2c1C(=O)c1ccc(C#CCN2CCCCC2)cc1 (as salt: hydrochloride) [Example 34] | 153 to 154 °C

More lines, now with the values ahead:

melting point | SMILES
120 °C | CCCCc1oc2c(C(=O)OC(C)C)cccc2c1C(=O)c1ccc(/C=C/CN(CCCC)CCCC)cc1 (as salt: oxalate) [Example 52]
110 to 115 °C | CCCCc1oc2ccc(C(=O)OC(C)C)cc2c1C(=O)c1cc(C)c(/C=C/CN(CCCC)CCCC)c(C)c1 (as salt: oxalate) [Example 44]
189 to 191 °C | CCCCN(C/C=C/c1ccc(C(=O)c2c(C)oc3ccc(C(=O)OC(C)C)cc23)cc1)CCCC (as salt: hydrochloride) [Example 50]
91 to 93 °C | CCCCc1oc2ccc(C(=O)OC(C)C)cc2c1C(=O)c1cc(Cl)c(/C=C/CN(CCCC)CCCC)c(Cl)c1 (as salt: oxalate) [Example 51]
171 to 173 °C | CCCCN(C/C=C/c1ccc(C(=O)c2c(C3CCCCC3)oc3ccc(C(=O)OC(C)C)cc23)cc1)CCCC (as salt: hydrochloride) [Example 43]
